{"source": "paper PMC11456916", "about": "“A screen for cell envelope stress uncovers an inhibitor of prolipoprotein diacylglyceryl transferase, Lgt, in Escherichiacoli” (iScience, 2024)", "key": {"[1]": {"system": "E. coli ΔtolC-pore harboring pPromrcsA-GFP-mobile", "assay": "Secondary screen of bioactive small molecules for rcsA bioreporter induction (agar diffusion)", "format": "cell-based", "conditions": "100 nL of 10 mM stock spotted on MOPS minimal agar, visual analysis", "description": "To identify small molecules that act on the Gram-negative cell envelope, a set of 797 bioactive compounds that were previously identified to be antibacterial against efflux-deficient hyper-permeable E. coli (E. coli ΔtolC-pore) was screened to determine those that can induce the rcsA bioreporter on MOPS minimal medium. E. coli ΔtolC-pore is deficient in TolC-mediated drug efflux and expresses an outer-membrane pore encoded by fhuA,[46]^,[47] thereby allowing the capture of additional antibacterial chemical scaffolds that would normally be subject to efflux or are unable to traverse the E. coli outer membrane. As the compounds in the bioactive compound collection were all antibacterial at varying inhibitory concentrations, we conducted this secondary screen using a modified solid agar diffusion assay. This enabled testing of these antibacterial small molecules at a range of concentrations, which is often required to assess bioreporter induction. To that end, 100 nL aliquots of compounds from screening library plates were deposited onto discrete positions on MOPS agar impregnated with E. coli ΔtolC-pore harboring the reporter (Figure 3A). Compounds that induced reporter expression were determined through visual analysis of the screening plates following overnight growth by looking for signature green “halos” proximal to the zones of inhibition (Figure S4). […]"}, "P. aeruginosa PA01": {"system": "P. aeruginosa PA01", "assay": "MIC assay with or without SPR741, P. aeruginosa", "format": "cell-based, Pseudomonas aeruginosa", "conditions": "for MIC: Pseudomonas aeruginosa", "description": "(§1) We next sought to determine whether we could achieve growth inhibition of wild-type E. coli using MAC-0452936 and an antibiotic adjuvant. […] To that end, we determined the MIC of MAC-0452936 against wild-type E. coli in the presence and absence of a sub-MIC concentration of SPR741 (Figure S8B). […] We leveraged this combination to characterize the spectrum of activity of MAC-0452936 against a panel of Gram-negative pathogens (Table 2). In the presence of 8 μg/mL SPR741, we observed MAC-0452936 activity against the clinical E. coli isolates C0244 and CFT073 at 2 μg/mL as well as against Salmonella Typhimurium SL1344 at 4 μg/mL.\n(§2) For MIC assays, cultures of bacteria were grown in LB broth. Overnight cultures were diluted (1:100) into fresh LB media and grown to the mid-log phase of growth (OD600 ∼0.5). Subcultures were then normalized to an OD600 of 0.1, and diluted (1:5000) into assay media. Assay plates were then incubated for 18 h at 37°C, then OD600 was measured using a Biotek Neo plate reader."}, "K. aerogenes CO045": {"system": "K. aerogenes CO045", "assay": "MIC assay with or without SPR741, K. aerogenes", "format": "cell-based, Klebsiella aerogenes", "conditions": "for MIC: Klebsiella aerogenes", "description": "as §1, §2"}}, "note": "Read-outs that look alike come from different tables or passages of the source.", "data": [{"smiles": "COc1ccc(C(=O)O/N=C(\\c2cccs2)C(C)(C)C)cc1", "note": "[MAC-0452936, (Z)-2-Pivaloylthiophene O-(4-methoxybenzoyl) oxime]", "values": [{"measurement": "rcsA bioreporter (GFP) induction in secondary screen", "setting": "[1]", "result": "induced pPromrcsA-GFP"}, {"measurement": "MIC, P. aeruginosa PA01 + 8 μg/mL SPR741", "setting": "P. aeruginosa PA01; 8 μg/mL SPR741", "result": "did not observe MAC-0452936 activity"}, {"measurement": "MIC", "setting": "P. aeruginosa PA01; PA01, read-out: MIC, P. aeruginosa PA01 + 8 μg/mL SPR741", "result": "> 64", "unit": "µg/mL"}, {"measurement": "MIC", "setting": "P. aeruginosa PA01; PA01, read-out: MIC, P. aeruginosa PA01 + 0 μg/mL SPR741", "result": "> 64", "unit": "µg/mL"}, {"measurement": "MIC, K. aerogenes CO045 + 8 μg/mL SPR741", "setting": "K. aerogenes CO045; 8 μg/mL SPR741", "result": "did not observe MAC-0452936 activity"}, {"measurement": "MIC", "setting": "K. aerogenes CO045; CO045, read-out: MIC, K. aerogenes CO045 + 8 μg/mL SPR741", "result": "> 64", "unit": "µg/mL"}, {"measurement": "MIC", "setting": "K. aerogenes CO045; CO045, read-out: MIC, K. aerogenes CO045 + 0 μg/mL SPR741", "result": "> 64", "unit": "µg/mL"}]}]}
